Experimental data from publication PMC3885546, “Structural Determinants of the 5′-Methylthioinosine Specificity of Plasmodium Purine Nucleoside Phosphorylase” (PLoS ONE, 2014).
Changes are numbered by the printed parent chain. Names and notes keep the numbering of the source. Where two headings read alike, the source gives them in different places. Marks after values point to notes of the source that are not given here.

Key:
P. falciparum [1] = test system: P. falciparum; set-up: method as in PMID 22096507; details: Aotus model; cited from earlier work
Pf Val66Ile PNP = molecular target: T1, Pf Val66Ile PNP (Plasmodium falciparum, UniProt Q8I3X4, V66I); assay: Inhibition by immucillins (initial and slow onset); type: biochemical; details: slow onset
T1 construct: made in house; host or cells: Escherichia coli Top 10
Experimental: (§1) Kinetic assays were completed in 50 mM KH2PO4 at pH 7.4 measuring phosphorylysis of inosine or MTI by PNP in a coupled reaction with 60 milliunits/ml xanthine oxidase to convert hypoxanthine to uric acid. […] Assays were performed with excess substrate in the presence of inhibitors. Inhibition studies measured both initial (Ki) and slow onset inhibition (Ki*) for inhibitors. The initial onset inhibition was analyzed by using the following equation: ν ο = (k cat×S)/(K m(1+I/Ki)+S), ν ο is the steady state rate, k cat catalytic rate, S is substrate concentration, Km is Michealis constant for inosine, I is inhibitor concentration, and Ki is the equilibrium dissociation constant.

Pf Tyr160Phe PNP = molecular target: T2, Pf Tyr160Phe PNP (Plasmodium falciparum, UniProt Q8T9Z7, Y160F); assay: Inhibition by immucillins (initial and slow onset); type: biochemical; details: initial
T2 construct: made in house; host or cells: Escherichia coli Top 10
Experimental: as §1

Pf V66I:V73I:Y160F PNP = molecular target: T3, Pf V66I:V73I:Y160F PNP (Plasmodium falciparum, UniProt Q8T9Z7, V66I/V73I/Y160F); assay: Inhibition by immucillins (initial and slow onset); type: biochemical; details: initial
T3 construct: made in house; host or cells: Escherichia coli Top 10
Experimental: as §1

Pf V66I:V73I PNP = molecular target: T4, Pf V66I:V73I PNP (Plasmodium falciparum, UniProt Q8T9Z7, V66I/V73I); assay: Inhibition by immucillins (initial and slow onset); type: biochemical; details: initial
T4 construct: made in house; host or cells: Escherichia coli Top 10
Experimental: as §1

TgPNPWT [2] = details: TgPNP WT, ref Chaudhary, et al. [18], cited from earlier work
P. falciparum [3] = details: purine-rich environment of cultured red blood cells; cited from earlier work
[4] = test system: PfPNP versus mammalian PNP; set-up: method as in PMID 15576366; details: cited from earlier work
TgPNPWT [5] = assay: Inhibition by immucillins (literature values); type: biochemical, Toxoplasma gondii; details: TgPNP versus PfPNP
[6] = substrate: OC[C@H]1O[C@@H](n2cnc3c(O)ncnc32)[C@H](O)[C@@H]1O; assay: Substrate kinetics, xanthine oxidase coupled phosphorolysis assay; type: biochemical, Plasmodium falciparum; details: other: wild type PfPNP, substrate = label, 50 mM KH2PO4 pH 7.4, mean ± SD
Experimental: Kinetic assays were completed in 50 mM KH2PO4 at pH 7.4 measuring phosphorylysis of inosine or MTI by PNP in a coupled reaction with 60 milliunits/ml xanthine oxidase to convert hypoxanthine to uric acid. Formation of uric acid was measured at 293 nm wavelength (E293 = 12.9 mM^−1 cm^−1), [20]. In cases where activity for MTI was low, increased protein concentration (10 µg/ml) was used to check enzyme function. Assays were performed with excess substrate in the presence of inhibitors. Inhibition studies measured both initial (Ki) and slow onset inhibition (Ki*) for inhibitors. The initial onset inhibition was analyzed by using the following equation: ν ο = (k cat×S)/(K m(1+I/Ki)+S), ν ο is the steady state rate, k cat catalytic rate, S is substrate concentration, Km is Michealis constant for inosine, I is inhibitor concentration, and Ki is the equilibrium dissociation constant.

[7] = molecular target: the molecule itself; assay: SEC; Superose 12 gel filtration, 0.1 ml of 1 mg/ml loaded, 20 mM HEPES, 50 mM KCl, 5 mM KH2PO4, 0.1 mM DTT, pH 7.4, 0.5 ml/min; self-association (hexamer)
[8] = molecular target: the molecule itself; assay: crystal structure; V66I:V73I:Y160F PfPNP with ImmH and phosphate, 2.8 Å, space group I4(1)32, 2 molecules in the asymmetric unit; hexamer as a trimer of dimers

T3 sequence (Q8T9Z7 whole entry V66I/V73I/Y160F): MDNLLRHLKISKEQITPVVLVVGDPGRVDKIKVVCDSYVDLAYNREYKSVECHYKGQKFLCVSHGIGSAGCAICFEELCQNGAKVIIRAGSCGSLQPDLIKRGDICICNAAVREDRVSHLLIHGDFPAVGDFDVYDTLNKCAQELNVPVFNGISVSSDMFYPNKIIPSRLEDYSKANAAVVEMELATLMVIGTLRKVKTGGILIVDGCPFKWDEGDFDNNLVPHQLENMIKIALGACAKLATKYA
T2 sequence (Q8T9Z7 whole entry Y160F): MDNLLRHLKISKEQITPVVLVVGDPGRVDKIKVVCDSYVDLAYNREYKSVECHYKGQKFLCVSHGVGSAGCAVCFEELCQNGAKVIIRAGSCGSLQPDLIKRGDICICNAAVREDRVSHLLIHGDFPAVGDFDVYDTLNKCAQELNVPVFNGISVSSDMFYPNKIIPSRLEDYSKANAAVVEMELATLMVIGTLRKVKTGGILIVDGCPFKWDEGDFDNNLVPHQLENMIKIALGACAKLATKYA
T1 sequence (Q8I3X4 whole entry V66I): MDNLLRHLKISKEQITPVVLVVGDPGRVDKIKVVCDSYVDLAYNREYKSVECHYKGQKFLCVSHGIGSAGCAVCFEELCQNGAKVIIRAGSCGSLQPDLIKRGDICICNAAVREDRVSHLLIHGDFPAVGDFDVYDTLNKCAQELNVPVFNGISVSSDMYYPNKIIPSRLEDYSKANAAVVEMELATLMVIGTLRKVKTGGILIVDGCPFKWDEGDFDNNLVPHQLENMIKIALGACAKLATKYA
T4 sequence (Q8T9Z7 whole entry V66I/V73I): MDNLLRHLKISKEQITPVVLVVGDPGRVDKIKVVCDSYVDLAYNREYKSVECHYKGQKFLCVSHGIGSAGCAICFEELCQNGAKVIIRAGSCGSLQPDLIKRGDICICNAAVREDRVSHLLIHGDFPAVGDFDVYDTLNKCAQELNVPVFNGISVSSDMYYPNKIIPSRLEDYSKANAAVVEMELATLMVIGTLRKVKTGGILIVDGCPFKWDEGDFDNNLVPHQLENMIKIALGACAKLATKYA

**Q.** Which “efficacy against P. falciparum” value (P. falciparum [1]) does the source give for `Nc1nc2c(CN3C[C@H](CO)[C@@H](O)C3)c[nH]c2c(=O)[nH]1` [DADMe-Immucillin-G] here?
**A.** effective against P. falciparum in the Aotus model

**Q.** Which results are given for `O=c1[nH]cnc2c([C@@H]3N[C@H](CO)[C@@H](O)[C@H]3O)c[nH]c12` [ImmH, Immucillin-H]?
**A.** Ki* (Pf Val66Ile PNP): (-) ^c; Ki (Pf Tyr160Phe PNP): 0.93 nM; Ki (Pf V66I:V73I:Y160F PNP): 3.6 nM; Ki (Pf V66I:V73I PNP): 270 nM; Ki (TgPNPWT [2]; initial): 450 nM; Ki (TgPNPWT [2]; slow onset): 2 nM; effect on P. falciparum (P. falciparum [3]): causes P. falciparum cell death by purine starvation

**Q.** What does the source list for `CSC[C@H]1N[C@@H](c2c[nH]c3c(=O)[nH]cnc23)[C@H](O)[C@@H]1O` [MT-ImmH, 5′-methylthioimmucillin-H]?
**A.** greater specificity for PfPNP versus mammalian PNP [4]: 100 fold; less effective for TgPNP than for PfPNP (Ki*) (TgPNPWT [5]): more than 160 fold; Ki (TgPNPWT [2]; initial): 7100 nM; Ki (TgPNPWT [2]; slow onset): 290 nM

B1: PfPNP (wild type) (Plasmodium falciparum 3D7) (protein)
chain: MDNLLRHLKISKEQITPVVLVVGDPGRVDKIKVVCDSYVDLAYNREYKSVECHYKGQKFLCVSHGVGSAGCAVCFEELCQNGAKVIIRAGSCGSLQPDLIKRGDICICNAAVREDRVSHLLIHGDFPAVGDFDVYDTLNKCAQELNVPVFNGISVSSDMYYPNKIIPSRLEDYSKANAAVVEMELATLMVIGTLRKVKTGGILIVDGCPFKWDEGDFDNNLVPHQLENMIKIALGACAKLATKYA
notes: made in house; host or cells: Escherichia coli Top 10
**Q.** With B1 as the molecule, how does the Km [6] read?
**A.** 11 ± 5 µM

**Q.** What about the kcat [6] of the same molecule?
**A.** 1.7 ± 0.7 s⁻¹

**Q.** And the kcat/Km [6]?
**A.** 150000 M⁻¹ s⁻¹

B2: Plasmodium falciparum purine nucleoside phosphorylase (PfPNP), wild type (enzyme, Plasmodium falciparum (3D7 strain))
chain: DNLLRHLKISKEQITPVVLVVGDPGRVDKIKVVCDSYVDLAYNREYKSVECHYKGQKFLCVSHGVGSAGCAVCFEELCQNGAKVIIRAGSCGSLQPDLIKRGDICICNAAVREDRVSHLLIHGDFPAVGDFDVYDTLNKCAQELNVPVFNGISVSSDMYYPNKIIPSRLEDYSKANAAVVEMELATLMVIGTLRKVKTGGILIVDGCPFKWDEGDFDNNLVPHQLENMIKIALGACAKLATKYA
notes: purine nucleoside phosphorylase of P. falciparum 3D7; also called PfPNP WT; wild-type PfPNP; source: E. coli Top 10, purified (Ni-NTA); not shown: c-Myc, C-terminal, kept; His6, C-terminal, kept
**Q.** Which “stoichiometry N” value [7] does the source give for B2 here?
**A.** 6

B3: V66I:V73I:Y160F PfPNP (triple mutant Val66Ile:Val73Ile:Tyr160Phe) (enzyme)
chain: B2 chain with V65I, V72I, Y159F
notes: also called Pf V66I:V73I:Y160F; triple PfPNP mutant; source: E. coli Top 10, purified (Ni-NTA; Superdex 200 for larger scale); not shown: c-Myc, C-terminal, kept; His6, C-terminal, kept
**Q.** Which “stoichiometry N” value [8] does the source give for B3 here?
**A.** 6
